Experimental data: ChEMBL document CHEMBL3872213, “Synthesis and biological activity of furoxan derivatives against Mycobacterium tuberculosis” (Eur J Med Chem, 2016)
In brackets after ≈: the same amount, converted by molar mass.

Assays:
[1] = system: Mycobacterium tuberculosis; assay: microbe, parasite or virus in culture; conditions: H37Rv ATCC 27294, 168 h
Description: Antitubercular activity against Mycobacterium tuberculosis H37Rv ATCC 27294 after 7 days by REMA method

[2] = system: Mycobacterium tuberculosis; assay type: functional; conditions: H37Rv ATCC 27294, 168 h
[3] = system: Mycobacterium tuberculosis; assay type: functional; conditions: H37Rv
[4] = system: Mycobacterium tuberculosis; assay type: functional; conditions: H37Rv ATCC 27294, 144 h
[5] = Induction of nitric oxide production assessed as nitrite level at 10^-4M measured after 1 hr in presence 1:50 molar excess of L-cysteine by Griess reagent based spectrophotometer relative to control; assay type: physicochemical; conditions: 100 µM
[6] = n-octanol-water partition coefficient, log P of the compound by HPLC method; assay type: physicochemical
[7] = in vitro; conditions: human, MRC5 cells
Description: Selectivity index, ratio of IC50 for human MRC5 cells to MIC90 for Mycobacterium tuberculosis H37Rv ATCC 27294

[8] = system: Mycobacterium tuberculosis; assay type: functional; conditions: H37Rv ATCC 27294, 168 h; remark: listed apart in the source
[9] = Cytotoxicity against human MRC5 cells measured after 24 hrs by resazurin based fluorescence method; assay type: toxicity, cell-based
[10] = Cytotoxicity against mouse J774A.1 cells measured after 24 hrs by resazurin based fluorescence method; assay type: toxicity, J774.A1
[11] = in vitro; conditions: mouse, J774A.1 cells
Description: Selectivity index, ratio of IC50 for mouse J774A.1 cells to MIC90 for Mycobacterium tuberculosis H37Rv ATCC 27294

[12] = Chemical stability in pH 1 PBS buffer assessed as compound degradation after 1 hr by HPLC-MS/MS method; assay type: physicochemical; conditions: read-out: Drug degradation
[13] = Chemical stability in pH 5 PBS buffer after 6 hrs by HPLC-MS/MS method; assay type: physicochemical; conditions: pH 5, 6 h
[14] = Chemical stability in pH 9 PBS buffer assessed as compound degradation after 1 hr by HPLC-MS/MS method; assay type: physicochemical; conditions: read-out: Drug degradation
[15] = Chemical stability in pH 5 PBS buffer assessed as compound degradation after 24 hrs by HPLC-MS/MS method; assay type: physicochemical; conditions: read-out: Drug degradation
[16] = Chemical stability in pH 7.4 PBS buffer assessed as compound degradation after 6 hrs by HPLC-MS/MS method; assay type: physicochemical; conditions: read-out: Drug degradation
[17] = Chemical stability in pH 7.4 PBS buffer assessed as compound degradation after 24 hrs by HPLC-MS/MS method; assay type: physicochemical; conditions: read-out: Drug degradation

Q: Which MIC90 [1] does the source give for `O=C(CC(=O)C(F)(F)F)c1cccs1` here?
A: 10.9 µM (≈ 2.42 µg/mL)

Q: With `c1csc(-c2nc3ccccc3s2)c1` as the compound, how does the MIC90 [1] read?
A: 50 µM (≈ 10.9 µg/mL)

Q: With `CN(C)c1ccc(/C=N/c2ccc(O)cc2)cc1` as the compound, how does the MIC90 [1] read?
A: 15.6 µM (≈ 3.75 µg/mL)

Q: Which MIC90 [2] does the source give for `C/C(=N\NC(=S)Nc1ccccc1)c1ccccn1` here?
A: 15.6 µM (≈ 4.22 µg/mL)

Q: Which MIC90 [1] does the source give for `O=S(=O)(c1ccccc1)c1no[n+]([O-])c1S(=O)(=O)c1ccccc1` here?
A: 6.2 µM (≈ 2.27 µg/mL)

Q: Which MIC90 [3] does the source give for `O=C(N/N=C/c1ccc(O)cc1)c1ccncc1` here?
A: 1 µM (≈ 0.241 µg/mL)

Q: And the MIC90 [1]?
A: 1.04 µM (≈ 0.251 µg/mL)

Q: With `CC(C)COC(=O)c1cnccn1` as the compound, how does the MIC90 [4] read?
A: 2 µM (≈ 0.36 µg/mL)

Q: Which Activity [5] does the source give for `O=Cc1cccc(Oc2no[n+]([O-])c2-c2ccccc2)c1` here?
A: 23.1%

Q: What about the MIC90 [1] of the same compound?
A: > 62 µM

Q: For `Cc1c(Oc2ccccc2C=O)no[n+]1[O-]`, which Activity [5] is on record?
A: 0%

Q: What about the MIC90 [1] of the same compound?
A: > 62 µM

Q: With `Cc1c(Oc2cccc(/C=N/NC(=O)c3ccncc3)c2)no[n+]1[O-]` as the compound, how does the logP [6] read?
A: 1.3

Q: What about the Activity [5] of the same compound?
A: 0.16%

Q: What about the MIC90 [1] of the same compound?
A: > 62 µM

Q: Which logP [6] does the source give for `O=C(N/N=C/c1cccc(Oc2no[n+]([O-])c2S(=O)(=O)c2ccccc2)c1)c1ccncc1` here?
A: 2.3

Q: And the Activity [5]?
A: 38.5%

Q: And the selectivity ratio [7]?
A: 14.1

Q: And the MIC90 [1]?
A: 1.61 µM (≈ 0.749 µg/mL)

Q: And the MIC90 [8]?
A: > 62 µM

Q: And the IC50 at 24 h [9]?
A: 30.1 µM

Q: What about the IC50 at 24 h [10] of the same compound?
A: 4.3 µM

Q: What about the selectivity ratio [11] of the same compound?
A: 3

Q: For `COc1cc(/C=N/c2ccc(O)cc2)cc(OC)c1OC`, which MIC90 [1] is on record?
A: 15.6 µM (≈ 4.48 µg/mL)

Q: Which results are given for `Cc1c(Oc2cccc(C=O)c2)no[n+]1[O-]`?
A: Activity [5]: 0%; MIC90 [1]: > 62 µM

Q: Which logP [6] does the source give for `O=C(N/N=C/c1cccc(Oc2no[n+]([O-])c2-c2ccccc2)c1)c1ccncc1` here?
A: 2.9

Q: And the Activity [5]?
A: 6.87%

Q: What about the MIC90 [1] of the same compound?
A: > 62 µM

Q: For `O=C(N/N=C/c1ccc(Oc2no[n+]([O-])c2-c2ccccc2)cc1)c1ccncc1`, which logP [6] is on record?
A: 2.9

Q: What about the Activity [5] of the same compound?
A: 7.33%

Q: And the selectivity ratio [7]?
A: 52.7

Q: What about the MIC90 [1] of the same compound?
A: 11.8 µM (≈ 4.74 µg/mL)

Q: And the MIC90 [8]?
A: > 62 µM

Q: What about the IC50 at 24 h [9] of the same compound?
A: 623 µM

Q: And the IC50 at 24 h [10]?
A: 409 µM

Q: What about the selectivity ratio [11] of the same compound?
A: 34.8

Q: Which results are given for `O=Cc1ccccc1Oc1no[n+]([O-])c1-c1ccccc1`?
A: Activity [5]: 25.1%; MIC90 [1]: > 62 µM

Q: With `O=C(N/N=C/c1ccc(Oc2no[n+]([O-])c2S(=O)(=O)c2ccccc2)cc1)c1ccncc1` as the compound, how does the logP [6] read?
A: 2.1

Q: And the degraded at 1 h [12]?
A: 90%

Q: And the Activity [5]?
A: 43.5%

Q: What about the selectivity ratio [7] of the same compound?
A: 20.3

Q: And the MIC90 [1]?
A: 1.03 µM (≈ 0.479 µg/mL)

Q: And the Stability [13]?
A: Stable

Q: What about the degraded at 1 h [14] of the same compound?
A: 50%

Q: And the degraded at 24 h [15]?
A: 20%

Q: What about the MIC90 [8] of the same compound?
A: > 62 µM

Q: What about the IC50 at 24 h [9] of the same compound?
A: 43 µM

Q: And the IC50 at 24 h [10]?
A: 10.8 µM

Q: What about the selectivity ratio [11] of the same compound?
A: 12

Q: What about the degraded at 6 h [16] of the same compound?
A: 15%

Q: And the degraded at 24 h [17]?
A: 20%

Q: With `O=C(NC(=S)N(c1ccccc1)c1ccccc1)c1ccccc1` as the compound, how does the MIC90 [1] read?
A: 25 µM (≈ 8.31 µg/mL)

Q: For `O=C(N/N=C/c1ccccc1Oc1no[n+]([O-])c1-c1ccccc1)c1ccncc1`, which logP [6] is on record?
A: 2.7

Q: And the Activity [5]?
A: 11.2%

Q: And the MIC90 [1]?
A: > 62 µM

Q: Which Activity [5] does the source give for `O=Cc1ccc(Oc2no[n+]([O-])c2S(=O)(=O)c2ccccc2)cc1` here?
A: 24.4%

Q: And the MIC90 [1]?
A: 26 µM (≈ 9.01 µg/mL)

Q: And the IC50 at 24 h [10]?
A: 2.2 µM

Q: And the selectivity ratio [11]?
A: 0.1

Q: With `CCN(CC)C(=S)NC(=O)c1ccco1` as the compound, how does the MIC90 [1] read?
A: 25 µM (≈ 5.66 µg/mL)

Q: Which MIC90 [1] does the source give for `CN(C)C(=S)NC(=O)c1ccccc1` here?
A: 25 µM (≈ 5.21 µg/mL)

Q: What does the source list for `O=Cc1ccc(Oc2no[n+]([O-])c2-c2ccccc2)cc1`?
A: Activity [5]: 19.4%; MIC90 [1]: > 62 µM

Q: Which MIC90 [1] does the source give for `CCCCN(CCCC)C(=S)NC(=O)c1ccccc1` here?
A: 25 µM (≈ 7.31 µg/mL)

Q: Which MIC90 [1] does the source give for `NC(=O)c1c(CBr)no[n+]1[O-]` here?
A: 3 µM (≈ 0.666 µg/mL)

Q: For `O=Cc1ccccc1Oc1no[n+]([O-])c1S(=O)(=O)c1ccccc1`, which Activity [5] is on record?
A: 21.2%

Q: What about the MIC90 [1] of the same compound?
A: 20.2 µM (≈ 7.01 µg/mL)

Q: What about the IC50 at 24 h [10] of the same compound?
A: 7.4 µM

Q: And the selectivity ratio [11]?
A: 0.4

Q: Which results are given for `Cc1c(Oc2ccc(/C=N/NC(=O)c3ccncc3)cc2)no[n+]1[O-]`?
A: logP [6]: 1.3; Activity [5]: 2.02%; MIC90 [1]: > 62 µM

Q: Which Activity [5] does the source give for `O=Cc1cccc(Oc2no[n+]([O-])c2S(=O)(=O)c2ccccc2)c1` here?
A: 27.1%

Q: And the MIC90 [1]?
A: 20.9 µM (≈ 7.23 µg/mL)

Q: What about the IC50 at 24 h [10] of the same compound?
A: 5.6 µM

Q: What about the selectivity ratio [11] of the same compound?
A: 2

Q: Which MIC90 [1] does the source give for `O=[N+]([O-])c1ccc(/C=N/c2ccc(O)cc2)cc1` here?
A: 15.6 µM (≈ 3.78 µg/mL)

Q: With `Cc1c(Oc2ccccc2/C=N/NC(=O)c2ccncc2)no[n+]1[O-]` as the compound, how does the logP [6] read?
A: 1.4

Q: And the Activity [5]?
A: 0.35%

Q: And the MIC90 [1]?
A: > 62 µM

Q: For `O=C(N/N=C/c1ccccc1Oc1no[n+]([O-])c1S(=O)(=O)c1ccccc1)c1ccncc1`, which logP [6] is on record?
A: 2.2

Q: And the Activity [5]?
A: 44.2%

Q: And the selectivity ratio [7]?
A: 3.78

Q: What about the MIC90 [1] of the same compound?
A: 8.6 µM (≈ 4 µg/mL)

Q: And the MIC90 [8]?
A: > 62 µM

Q: And the IC50 at 24 h [9]?
A: 34.4 µM

Q: And the IC50 at 24 h [10]?
A: 10.8 µM

Q: What about the selectivity ratio [11] of the same compound?
A: 1.25

Q: Which Activity [5] does the source give for `Cc1c(Oc2ccc(C=O)cc2)no[n+]1[O-]` here?
A: 0%

Q: What about the MIC90 [1] of the same compound?
A: > 62 µM

Q: For `C/C(=N\NC(N)=S)c1ccccn1`, which MIC90 [2] is on record?
A: 31.3 µM (≈ 6.08 µg/mL)

Q: Which MIC90 [1] does the source give for `O=C(CC(=O)C(F)(F)F)c1ccccc1` here?
A: 9.61 µM (≈ 2.08 µg/mL)

Q: For `O=C(N/N=C/c1cccc(O)c1)c1ccncc1`, which MIC90 [1] is on record?
A: 104 µM (≈ 25 µg/mL)

Q: For `CNC(=S)N/N=C(\C)c1ccccn1`, which MIC90 [2] is on record?
A: 7.8 µM (≈ 1.62 µg/mL)

Q: Which MIC90 [1] does the source give for `O=S(=O)(c1ccccc1)c1no[n+]([O-])c1-c1ccccc1` here?
A: 82 µM (≈ 24.8 µg/mL)

Q: With `COc1ccc(/C=N/CC/N=C/c2ccc(OC)cc2)cc1` as the compound, how does the MIC90 [1] read?
A: 25 µM (≈ 7.41 µg/mL)

Q: With `N[C@@H]1CONC1=O` [CYCLOSERINE] as the compound, how does the MIC90 [3] read?
A: 245 µM (≈ 25 µg/mL)

Q: Which results are given for `NNC(=O)c1ccncc1` [ISONIAZID]?
A: Activity [5]: 0%; MIC90 [1]: 0.11 µM (≈ 0.0151 µg/mL)

Q: With `O=[N+]([O-])O[C@H]1CO[C@H]2[C@@H]1OC[C@H]2O[N+](=O)[O-]` [ISOSORBIDE DINITRATE] as the compound, how does the Activity [5] read?
A: 7.17 to 7.5 mol/mol

Q: Which MIC90 [3] does the source give for `NC[C@H]1O[C@H](O[C@H]2[C@H](O)[C@@H](O[C@H]3O[C@H](CO)[C@@H](O)[C@H](N)[C@H]3O)[C@H](N)C[C@@H]2N)[C@H](O)[C@@H](O)[C@@H]1O` [KANAMYCIN] here?
A: 3.4 µM (≈ 1.65 µg/mL)

Q: With `NC(=O)c1cnccn1` [PYRAZINAMIDE] as the compound, how does the MIC90 [3] read?
A: > 48 µM

Q: Which results are given for `CO[C@H]1/C=C/O[C@@]2(C)Oc3c(C)c(O)c4c(O)c(c(/C=N/N5CCN(C)CC5)c(O)c4c3C2=O)NC(=O)/C(C)=C\C=C\[C@H](C)[C@H](O)[C@@H](C)[C@@H](O)[C@@H](C)[C@H](OC(C)=O)[C@@H]1C` [RIFAMPIN]?
A: Activity [5]: 0%; MIC90 [1]: 0.5 µM (≈ 0.411 µg/mL)

Q: For `O=C(N/N=C/c1ccccc1O)c1ccncc1` [SALINAZID], which MIC90 [1] is on record?
A: 12.4 µM (≈ 3 µg/mL)
